The test system of data set [1] is RAW264.7. As to the kind of experiment: Antiinflammatory activity in LPS-induced mouse RAW264.7 cells assessed as decrease in COX-2 expression at 10 uM pretreated for 2 hrs followed by stimulation with LPS for 22 hrs by Western blot analysis. The data set is classed as functional, cell-based. As to conditions: time 24.0 hrs.
In data set [2] the test system is RAW264.7. Briefly: Antiinflammatory activity in LPS-induced mouse RAW264.7 cells assessed as decrease in COX-2 expression pretreated for 2 hrs followed by stimulation with LPS for 22 hrs by Western blot analysis. The data set is classed as functional, cell-based.
The nature of data set [3]: Cytotoxicity against mouse RAW264.7 cells assessed as cell viability after 24 hrs by MTT assay. Format: toxicity, cell-based. Background: Tetrazolium assays rely on reduction of a dye to a coloured formazan, in cell work by metabolically active cells.
In data set [4] the test system is RAW264.7. As to the kind of experiment: Antiinflammatory activity in LPS-induced mouse RAW264.7 cells assessed as decrease in IL-1beta expression at 6 uM pretreated for 2 hrs followed by stimulation with LPS for 6 hrs by RT-PCR analysis. The data set is classed as functional, cell-based.
In data set [5] the test system is RAW264.7. Briefly: Antiinflammatory activity in LPS-induced mouse RAW264.7 cells assessed as decrease in IL-6 expression at 6 uM pretreated for 2 hrs followed by stimulation with LPS for 6 hrs by RT-PCR analysis. Format: functional, cell-based.
In data set [6] the test system is RAW264.7. Briefly: Antiinflammatory activity in LPS-induced mouse RAW264.7 cells assessed as decrease in IL-1beta expression at 6 uM pretreated for 2 hrs followed by stimulation with LPS for 6 hrs by Western blot analysis. The data set is classed as functional, cell-based. In general terms: A western blot detects proteins with antibodies after separation by electrophoresis.

Data set [7] relates to RAW264.7. As to the kind of experiment: Antiinflammatory activity in LPS-induced mouse RAW264.7 cells assessed as decrease in IL-6 expression at 6 uM pretreated for 2 hrs followed by stimulation with LPS for 6 hrs by Western blot analysis. Format: functional, cell-based. As to conditions: time 8.0 hrs.

The values that follow come from ChEMBL document CHEMBL5113433, “Biological evaluation for anti-inflammatory effect of africane-type sesquiterpenoids” (Bioorg Med Chem, 2022).

The structures appear in SMILES notation. Active and inactive are the calls of the source. No cut-off for these calls is given here.

`CC(=O)OC[C@]1(O)CC[C@@H]2[C@@H]1CC(C)(C)C[C@H]1C[C@]12C`: the outcome in data set [1] was Active.

Broadly, the IC50 is the concentration at which inhibition is half-maximal. On to `CC(=O)OCC1(O)CCC2C1CC(C)(C)CC1CC12C` (single isomer, unassigned; (-)) [listing 1 of 2 here], for which the IC50 in data set [2] (raw264.7) worked out at 8.18 µM.

Turning to `CC(=O)OCC1(O)CCC2C1CC(C)(C)CC1CC12C` (single isomer, unassigned; (+)) [listing 1 of 2 here], the half-inhibitory concentration (IC50) in data set [2] (Mus musculus, RAW264.7) worked out at 6.64 µM. The half-inhibitory concentration (IC50) at 24 h in data set [3] was > 10 µM.

For `C=CCC(C)(C)C[C@@H]1C(=O)CC[C@H]1C(=C)C`, the outcome in data set [4], in data set [5], in data set [1], in data set [6] and in data set [7] was Active. Besides, in data set [2] (Mus musculus, RAW264.7), the IC50 is 8.17 µM. In data set [3], the IC50 at 24 h was > 10 µM.

As to `CC(=O)OCC1(O)CCC2C1CC(C)(C)CC1CC12C` (single isomer, unassigned; (+)) [listing 2 of 2 here], the result in data set [4], in data set [5], in data set [1], in data set [6] and in data set [7] was Active.

Turning to `CC(=O)OC[C@@]1(O)CC[C@@H]2[C@@H]1CC(C)(C)C[C@H]1C[C@]12C`, the result in data set [4], in data set [5], in data set [1], in data set [6] and in data set [7] was Active. Also, the 50% inhibitory concentration (IC50) in data set [2] (Mus musculus, RAW264.7) amounted to 4.61 µM. Further, the IC50 at 24 h in data set [3] was > 10 µM.

As to `CC(=O)OCC1(O)CCC2C1CC(C)(C)CC1CC12C` (single isomer, unassigned; (-)) [listing 2 of 2 here], the result in data set [4], in data set [5], in data set [1], in data set [6] and in data set [7] was Active.
